Legend:
bitch = test: Plasma progesterone and pregnancy outcome in a bitch given daily subcutaneous injections for 7 days (Example 1); assay type: in vivo, dogs
Description: A bitch was bled and the plasma progesterone measured in nanograms per milliliter versus the day of diestrus. The bitch was bled on day -8 and day -4. The plasma progesterone was 4 to 6 nanograms per milliliter on those two days. At day 1, the plasma progesterone was at 30 nanograms per milliliter and peaked at about 60 on day 9 slowly decreasing to about 30 on day 25. At day 25 the bitch started to receive daily subcutaneous 1 2 3 injections of [N-Ac-D-Nal(2) , D-p-Cl-Phe , D-Trp , D-Deh , D-Ala ] LHRH for 7 days. After the first injection the plasma progesterone level immediately dropped to 4 nanograms per milliliter. At the end of the course of treatment, the level of plasma progesterone was down below 1 nanogram per milliliter. A fetus was expelled the 5th day of treatment and a tissue mass was expelled on day 49, which was 24 days after the start of treatment.

pregnant beagle bitches = test: Effect of time of dosing with two LHRH antagonists on pregnancy in bitches (Example 2, Table 1); assay type: in vivo, dogs; conditions: daily injection for seven days, 300 µg/kg/day
Experimental: Several pregnant beagle bitches were treated with one of two different LHRH antagonists by subcutaneous injection.

beagle bitch [1] = test: Single subcutaneous injection in a pregnant beagle bitch: plasma progesterone and abortion (Example 3); assay type: in vivo, dogs; conditions: single subcutaneous injection of 50 mg on the twenty-ninth day of pregnancy
Experimental: A beagle bitch was bred and confirmed to be pregnant by manual palpation of the uterus during the fourth week of gestation. On the twenty-ninth day of pregnancy […] was administered a single subcutaneous injection of an aqueous solution of 50 mg of [N-Ac-D-Nal(2) , D-p-C1-Phe, D-Trp , D-Deh , D-Ala ]LHRH. Immediately before injection the plasma progesterone levels was 19ng/ml and by 24 hours after injection this had declined to 3.3 ng/ml. Plasma levels of progesterone varied thereafter from day to day but were never above 6 ng/ml. Delivery of an abortus was noted on the 36th day of pregnancy.

beagle bitch [2] = test: Termination of estrus in a beagle bitch (Example 4); assay type: in vivo, dogs; conditions: 300 µg/kg/day for 14 days started on day 2 (entering estrus)
Experimental: A beagle bitch was identified with a slight sanguineous vaginal discharge (day 1 of the experiment). Microscopic evaluation of vaginal cytology confirmed the bitch to be in proestrus. […] She was immediately started on a course of treatment of 300 µg/kg/day for 14 days of [N-Ac-D-Nal(2) , D-p-Cl-Phe , D-Trp , D-Deh ,D-Ala ]LHRH.
The vaginal discharge diminished and was last noted on day 5. By day 6 the bitch was confirmed by vaginal cytology to have reentered diestrus.

pregnant cats = test: Seven-day subcutaneous minipump infusion in pregnant cats: plasma progesterone and pregnancy (Example 5); assay type: in vivo; conditions: for Plasma level of progesterone: 300 μg/kg/day for seven days
Experimental: Female cats were bred and 15-18 days later were implanted subcutaneously with an Alzet^8 minipump filled with a solution of [N-Ac-D-Nal(2) , D-p-Cl-Phe , D-Trp , D-Deh ,D-Ala ]LHRH in propylene glycol at a concentration sufficient to deliver 300 µg/kg/day. The pumps were removed after seven days. No effect of treatment on circulating levels of progesterone could be discerned in daily plasma samples.

N-Ac-D-Nal(2)-D-pCL-Phe-D-Trp-Ser-Tyr-D-Deh-Leu-Arg-ProD-Ala
level of plasma progesterone at the end of the course of treatment (bitch; bitch, daily subcutaneous injections for 7 days starting day 25 of diestrus): below 1 nanogram per milliliter | plasma progesterone level after the first injection (bitch; bitch, daily subcutaneous injections for 7 days starting day 25 of diestrus, about 30 on day 25 before treatment): 4 nanograms per milliliter | tissue mass expelled, day (bitch; day of diestrus, 24 days after the start of treatment): 49 | COMMENT (pregnancy outcome) (pregnant beagle bitches; dog 1, treatment on days 36-42 of pregnancy): Aborted on days 39-41 of pregnancy | COMMENT (pregnancy outcome) (pregnant beagle bitches; dog 2, treatment on days 32-38 of pregnancy): Aborted on day 35 of pregnancy | plasma progesterone level 24 hours after injection (beagle bitch [1]; 19ng/ml immediately before injection): 3.3 ng/mL | plasma levels of progesterone thereafter (beagle bitch [1]; later than 24 hours, varied from day to day): ≤ 6 ng/mL | attractiveness to stud males (beagle bitch [2]): not attractive to stud males | reentered diestrus confirmed by vaginal cytology, day of the experiment (beagle bitch [2]): ≤ 6 | sexual receptivity (beagle bitch [2]): no sign of sexual receptivity | vaginal discharge last noted, day of the experiment (beagle bitch [2]): 5 | Plasma level of progesterone (pregnant cats; Cat 1, day 0 from treatment): 4.0 ng/mL | Plasma level of progesterone (pregnant cats; Cat 1, day 1 from treatment): 2.7 ng/mL | Plasma level of progesterone (pregnant cats; Cat 1, day 2 from treatment): 4.3 ng/mL | Plasma level of progesterone (pregnant cats; Cat 1, day 3 from treatment): 4.0 ng/mL | Plasma level of progesterone (pregnant cats; Cat 1, day 4 from treatment): 4.4 ng/mL | Plasma level of progesterone (pregnant cats; Cat 1, day 5 from treatment): 3.8 ng/mL | Plasma level of progesterone (pregnant cats; Cat 1, day 6 from treatment): 5.7 ng/mL | Plasma level of progesterone (pregnant cats; Cat 1, day 7 from treatment): 3.3 ng/mL | Plasma level of progesterone (pregnant cats; Cat 1, day 8 from treatment): 6.5 ng/mL | Plasma level of progesterone (pregnant cats; Cat 1, day 9 from treatment): 6.7 ng/mL | Plasma level of progesterone (pregnant cats; Cat 1, day 10 from treatment): 5.2 ng/mL | Plasma level of progesterone (pregnant cats; Cat 1, day -1 from treatment (before treatment)): 2.0 ng/mL | Plasma level of progesterone (pregnant cats; Cat 1, day -2 from treatment (before treatment)): 4.5 ng/mL | Plasma level of progesterone (pregnant cats; Cat 2, day 0 from treatment): 2.3 ng/mL | Plasma level of progesterone (pregnant cats; Cat 2, day 1 from treatment): 4.1 ng/mL | Plasma level of progesterone (pregnant cats; Cat 2, day 2 from treatment): 5.2 ng/mL | Plasma level of progesterone (pregnant cats; Cat 2, day 3 from treatment): 3.9 ng/mL | Plasma level of progesterone (pregnant cats; Cat 2, day 4 from treatment): 4.2 ng/mL | Plasma level of progesterone (pregnant cats; Cat 2, day 5 from treatment): 4.2 ng/mL | Plasma level of progesterone (pregnant cats; Cat 2, day 6 from treatment): 6.3 ng/mL | Plasma level of progesterone (pregnant cats; Cat 2, day 7 from treatment): 5.5 ng/mL | Plasma level of progesterone (pregnant cats; Cat 2, day 8 from treatment): 6.1 ng/mL | Plasma level of progesterone (pregnant cats; Cat 2, day 9 from treatment): 7.3 ng/mL | Plasma level of progesterone (pregnant cats; Cat 2, day 10 from treatment): 6.7 ng/mL | Plasma level of progesterone (pregnant cats; Cat 2, day -1 from treatment (before treatment)): 3.0 ng/mL | Plasma level of progesterone (pregnant cats; Cat 2, day -2 from treatment (before treatment)): 4.3 ng/mL | pregnancy outcome (pregnant cats; cats implanted 15-18 days after breeding, minipump 300 µg/kg/day for seven days): All treated cats continued to normal uneventful term delivery | effect of treatment on circulating levels of progesterone (pregnant cats; cats implanted 15-18 days after breeding, minipump 300 µg/kg/day for seven days, daily plasma samples): No effect

Reference: EP0199302A2, “Contraception in dogs with luteinizing hormone releasing hormone antagonists” (SYNTEX (U.S.A.) INC., priority 1985, dated 1986)
